Measured values as given in publication PMC6864590, “Planar Cell Polarity Effector Proteins Inturned and Fuzzy Form a Rab23 GEF Complex” (Current Biology, 2019).
Residue numbers refer to the chain shown, from its start.

Tests used:
Rab23 [1] = target: T1, Rab23 (Homo sapiens, UniProt Q9ULC3, C85R); test: radiolabelled nucleotide binding, GST pull-down; settings: labelled compound; pH 6.8
T1 construct: hexahistidine-GST-tagged (pFAT2), expressed in E. coli BL21(DE3) pRIL, Ni-NTA purified, tags kept
T1 sequence (Q9ULC3 1-237 C85R limits assumed): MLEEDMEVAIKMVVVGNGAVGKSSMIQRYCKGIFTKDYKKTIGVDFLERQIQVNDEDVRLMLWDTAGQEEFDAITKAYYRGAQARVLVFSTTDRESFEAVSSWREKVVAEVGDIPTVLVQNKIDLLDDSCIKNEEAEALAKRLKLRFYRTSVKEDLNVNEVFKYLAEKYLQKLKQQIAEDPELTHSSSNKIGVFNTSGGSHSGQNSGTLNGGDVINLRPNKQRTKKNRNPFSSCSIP

Rab32 = target: T2, Rab32 (Homo sapiens, UniProt Q13637); test: [3H]-GDP release GEF endpoint assay, glutathione-Sepharose capture; assay type: binding; settings: labelled compound; Hps1-Hps4 GEF, Mg-GTP, pH 6.8, 30°C
T2 construct: GST-tagged (pFAT2), expressed in E. coli BL21(DE3) pRIL, Ni-NTA purified
T2 sequence (Q13637 2-225): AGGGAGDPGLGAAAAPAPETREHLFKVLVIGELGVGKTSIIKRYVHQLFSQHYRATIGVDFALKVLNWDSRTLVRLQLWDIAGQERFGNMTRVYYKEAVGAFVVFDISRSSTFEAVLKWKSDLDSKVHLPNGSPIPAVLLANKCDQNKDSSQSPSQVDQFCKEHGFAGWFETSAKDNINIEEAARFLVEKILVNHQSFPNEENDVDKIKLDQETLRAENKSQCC

Rab7 = target: T3, Rab7 (Homo sapiens, UniProt P51149); test: as above; assay type: binding; settings: labelled compound; Mon1-Ccz1 GEF, Mg-GTP, pH 6.8, 30°C
T3 construct: gene RAB7A; GST-tagged (pFAT2), expressed in E. coli BL21(DE3) pRIL, Ni-NTA purified

Rab38 = target: T4, Rab38 (Homo sapiens, UniProt P57729); test: as above; assay type: binding; settings: labelled compound; Hps1-Hps4 GEF, Mg-GTP, pH 6.8, 30°C
T4 construct: GST-tagged (pFAT2), expressed in E. coli BL21(DE3) pRIL, Ni-NTA purified
T4 sequence (P57729 1-211): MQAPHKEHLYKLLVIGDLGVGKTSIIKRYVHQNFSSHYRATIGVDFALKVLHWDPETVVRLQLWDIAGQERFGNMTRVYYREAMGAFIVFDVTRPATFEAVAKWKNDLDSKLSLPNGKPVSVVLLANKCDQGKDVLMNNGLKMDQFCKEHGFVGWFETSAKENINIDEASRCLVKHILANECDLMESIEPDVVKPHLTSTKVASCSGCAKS

Rab23 [2] = target: T5, Rab23 (Homo sapiens, UniProt Q9ULC3); test: as above; assay type: binding; settings: labelled compound; Intu-Fuz GEF, Mg-GTP, pH 6.8, 30°C
T5 construct: hexahistidine-GST-tagged (pFAT2), expressed in E. coli BL21(DE3) pRIL, Ni-NTA purified, tags kept
T5 sequence (Q9ULC3 1-237 limits assumed): T1 sequence (Q9ULC3 1-237 C85R limits assumed) with R85C

Rab23 [3] = target: T6, Rab23 (Homo sapiens, UniProt Q9ULC3, M12K); test: radiolabelled nucleotide binding, GST pull-down; settings: labelled compound; pH 6.8
T6 construct: hexahistidine-GST-tagged (pFAT2), expressed in E. coli BL21(DE3) pRIL, Ni-NTA purified, tags kept
T6 sequence (Q9ULC3 1-237 M12K limits assumed): T1 sequence (Q9ULC3 1-237 C85R limits assumed) with M12K, R85C

Rab23 [4] = target: T7, Rab23 (Homo sapiens, UniProt Q9ULC3, N121I); test: radiolabelled nucleotide binding, GST pull-down; settings: labelled compound; pH 6.8
T7 construct: hexahistidine-GST-tagged (pFAT2), expressed in E. coli BL21(DE3) pRIL, Ni-NTA purified, tags kept
T7 sequence (Q9ULC3 1-237 N121I limits assumed): T1 sequence (Q9ULC3 1-237 C85R limits assumed) with R85C, N121I

Rab23 [5] = target: T6, Rab23; test: basal GTP hydrolysis endpoint, charcoal assay; assay type: biochemical; settings: labelled compound; 30°C, 60 min, no GAP
Rab23 [6] = target: T7, Rab23; test: basal GTP hydrolysis endpoint, charcoal assay; assay type: biochemical; settings: labelled compound; 30°C, 60 min, no GAP
Rab23 [7] = target: T1, Rab23; test: basal GTP hydrolysis endpoint, charcoal assay; assay type: biochemical; settings: labelled compound; 30°C, 60 min, no GAP
Rab23 [8] = target: T5, Rab23; test: basal GTP hydrolysis endpoint, charcoal assay; assay type: biochemical; settings: labelled compound; 30°C, 60 min, no GAP

T3 sequence (P51149 2-207): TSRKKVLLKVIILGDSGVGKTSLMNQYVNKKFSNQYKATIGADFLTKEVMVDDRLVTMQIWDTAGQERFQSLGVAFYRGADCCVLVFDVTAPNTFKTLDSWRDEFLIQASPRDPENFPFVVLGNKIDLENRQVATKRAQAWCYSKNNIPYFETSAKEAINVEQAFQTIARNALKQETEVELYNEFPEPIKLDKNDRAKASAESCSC

Compound	GDP binding (Rab23 [1])	GDP-GTP exchange (pmol) (Rab32)	GDP-GTP exchange (pmol) (Rab7)	GDP-GTP exchange (pmol) (Rab38)	GDP-GTP exchange (pmol) (Rab23 [2])	GDP binding (Rab23 [3])	GDP binding (Rab23 [4])	GTP hydrolysis (Rab23 [5])	GTP hydrolysis (Rab23 [6])	GTP hydrolysis (Rab23 [7])	GTP hydrolysis (Rab23 [8])
Nc1nc2c(ncn2[C@@H]2O[C@H](COP(=O)(O)OP(=O)(O)O)[C@@H](O)[C@H]2O)c(=O)[nH]1 [GDP]	Both Rab23^N121I and the two disease-associated mutants have reduced GDP-binding properties (Figure S3G)	comparable to the Rab7 and Rab32/38-specific GEFs Mon1-Ccz1 and Hps1-Hps4, respectively (Figure 1D)	comparable to the Rab7 and Rab32/38-specific GEFs Mon1-Ccz1 and Hps1-Hps4, respectively (Figure 1D)	comparable to the Rab7 and Rab32/38-specific GEFs Mon1-Ccz1 and Hps1-Hps4, respectively (Figure 1D)	Intu-Fuz complexes show specific GEF activity toward Rab23	Both Rab23^N121I and the two disease-associated mutants have reduced GDP-binding properties (Figure S3G)	Both Rab23^N121I and the two disease-associated mutants have reduced GDP-binding properties (Figure S3G)				
Nc1nc2c(ncn2[C@@H]2O[C@H](COP(=O)(O)OP(=O)(O)OP(=O)(O)O)[C@@H](O)[C@H]2O)c(=O)[nH]1 [GTP]								show an increased rate of basal GTP-hydrolysis (Figure S3H)	show an increased rate of basal GTP-hydrolysis (Figure S3H)	show an increased rate of basal GTP-hydrolysis (Figure S3H)	show an increased rate of basal GTP-hydrolysis (Figure S3H)
